Key:
HL60 = assay: CellTiter-Blue cell-based survival/proliferation assay, HL60; details: Homo sapiens, HL-60, Leukemia cell line HL60, 48 h, read-out: Anti-tumoral activity (measured IC50) HL60
Experimental: (§1) Cell-Based Proliferation Screening of Compounds
(§2) CellTiter-Blue cell-based survival/proliferation assay (Promega G8080) was performed on tumor cell lines. A total of 1·10^4 cells/well/50 μl were seeded in a 96-wells plate. Treatment was initiated by addition of a 2× drug solution of 1/10 serial dilutions ranging from 0 to 10 μM. Cells were grown for 48 h at 37° C. and then incubated with 10 μl/well of Promega CellTiter-Bleue reagent for 4 h at 37° C. The amount of resorufin dye formed was quantified by its fluorescence emission at 590 nm using a scanning multiwell spectrophotometer (OPTIMA, BMG labtech, France). A blank well without cells was used as a background control for the spectrophotometer.

OPM2 = assay: CellTiter-Blue cell-based survival/proliferation assay, OPM2; details: Homo sapiens, OPM-2, Myeloma cell line OPM2, 48 h, read-out: Anti-tumoral activity (measured IC50) OPM2
Experimental: as §1, §2

A498 = assay: CellTiter-Blue cell-based survival/proliferation assay, A498; details: Homo sapiens; A498 kidney tumor cell line, 48 h
Experimental: as §1, §2

A549 = assay: CellTiter-Blue cell-based survival/proliferation assay, A549; details: Homo sapiens; A549 lung tumor cell line, 48 h
Experimental: as §1, §2

ACHN = assay: CellTiter-Blue cell-based survival/proliferation assay, ACHN; details: Homo sapiens; ACHN kidney tumor cell line, 48 h
Experimental: as §1, §2

AGS = assay: CellTiter-Blue cell-based survival/proliferation assay, AGS; details: Homo sapiens; AGS stomach tumor cell line, 48 h
Experimental: as §1, §2

BT20 = assay: CellTiter-Blue cell-based survival/proliferation assay, BT20; details: Homo sapiens, BT-20; BT20 breast tumor cell line, 48 h
Experimental: as §1, §2

BXPC3 = assay: CellTiter-Blue cell-based survival/proliferation assay, BXPC3; details: Homo sapiens, BXPC-3; BXPC3 pancreas tumor cell line, 48 h
Experimental: as §1, §2

CALU6 = assay: CellTiter-Blue cell-based survival/proliferation assay, CALU6; details: Homo sapiens, Calu-6; CALU6 lung tumor cell line, 48 h
Experimental: as §1, §2

CLS354 = assay: CellTiter-Blue cell-based survival/proliferation assay, CLS354; details: Homo sapiens, CLS-354; CLS354_4 head & neck tumor cell line, 48 h
Experimental: as §1, §2

DLD1 = assay: CellTiter-Blue cell-based survival/proliferation assay, DLD1; details: Homo sapiens, DLD-1; DLD_1 colorectal tumor cell line, 48 h
Experimental: as §1, §2

DU145 = assay: CellTiter-Blue cell-based survival/proliferation assay, DU145; details: Homo sapiens, DU-145; DU145 prostate tumor cell line, 48 h
Experimental: as §1, §2

H1299 = assay: CellTiter-Blue cell-based survival/proliferation assay, H1299; details: Homo sapiens, NCI-H1299; H1299 lung tumor cell line, 48 h
Experimental: as §1, §2

HCT116 = assay: CellTiter-Blue cell-based survival/proliferation assay, HCT116; details: Homo sapiens, HCT-116; HCT116 colorectal tumor cell line, 48 h
Experimental: as §1, §2

HEP2 = assay: CellTiter-Blue cell-based survival/proliferation assay, HEP2; details: Homo sapiens, HEp-2; HEP2 head & neck tumor cell line, 48 h
Experimental: as §1, §2

HEPG2 = assay: CellTiter-Blue cell-based survival/proliferation assay, HEPG2; details: Homo sapiens; HEPG2 liver tumor cell line, 48 h
Experimental: as §1, §2

HGC27 = assay: CellTiter-Blue cell-based survival/proliferation assay, HGC27; details: Homo sapiens, HGC-27; HGC27 stomach tumor cell line, 48 h
Experimental: as §1, §2

MDAMB231 = assay: CellTiter-Blue cell-based survival/proliferation assay, MDAMB231; details: Homo sapiens, MDA-MB-231; MDAMB231 breast tumor cell line, 48 h
Experimental: as §1, §2

MESSA = assay: CellTiter-Blue cell-based survival/proliferation assay, MESSA; details: Homo sapiens, MES-SA; MESSA ovary tumor cell line, 48 h
Experimental: as §1, §2

PANC1 = assay: CellTiter-Blue cell-based survival/proliferation assay, PANC1; details: Homo sapiens, PANC-1; PANC_1 pancreas tumor cell line, 48 h
Experimental: as §1, §2

PC3 = assay: CellTiter-Blue cell-based survival/proliferation assay, PC3; details: Homo sapiens, PC-3; PC3 prostate tumor cell line, 48 h
Experimental: as §1, §2

PLCPRF5 = assay: CellTiter-Blue cell-based survival/proliferation assay, PLCPRF5; details: Homo sapiens, PLC-PRF-5; PLC_PRF5 liver tumor cell line, 48 h
Experimental: as §1, §2

SW579 = assay: CellTiter-Blue cell-based survival/proliferation assay, SW579; details: Homo sapiens; SW579 head & neck tumor cell line, 48 h
Experimental: as §1, §2

TOV112D = assay: CellTiter-Blue cell-based survival/proliferation assay, TOV112D; details: Homo sapiens; TOV112D ovary tumor cell line, 48 h
Experimental: as §1, §2

[1] = test system: panel of about 34 human tumor cell lines; assay: Cell-based proliferation screening on panel of tumor cell lines; details: solid tumor cell line, cell line unknown, 48 h, read-out: IC50, solid tumor cell line of column 6 (last section of Table 3)
Experimental: Compounds of formula (I) were tested against a panel of about 34 human tumor cell lines representing 17 cancer type, namely leukemia (represented by 1 cell line), lymphoma (4 cell lines), myeloma (1 cell line), colorectal (2 cell lines), head and neck (3 cell lines), lung (3 cell lines), melanoma (2 cell lines), pancreas (2 cell lines), prostate (2 cell lines), ovary (2 cell lines) breast (2 cell lines), kidney (2 cell lines), stomach (2 cell lines), liver (2 cell lines), glioblastoma (2 cell lines), osteosarcoma (1 cell line), Ewing Sarcoma (1 cell line).
as §1, §2

SMILES | IC50 (HL60) | IC50 (OPM2) | IC50 (A498) | IC50 (A549) | IC50 (ACHN) | IC50 (AGS) | IC50 (BT20) | IC50 (BXPC3) | IC50 (CALU6) | IC50 (CLS354) | IC50 (DLD1) | IC50 (DU145) | IC50 (H1299) | IC50 (HCT116) | IC50 (HEP2) | IC50 (HEPG2) | IC50 (HGC27) | IC50 (MDAMB231) | IC50 (MESSA) | IC50 (PANC1) | other results
CCOCc1ccc(C)c(Nc2ncc(-c3ccc(-n4nccc4C)cc3)o2)c1 [Example 041, (5-Ethoxymethyl-2-methyl-phenyl)-{5-[4-(5-methyl-pyrazol-1-yl)-phenyl]-oxazol-2-yl}-amine] | 500 to 1000 nM | 500 to 1000 nM | > 1000 nM | > 1000 nM | > 1000 nM | > 1000 nM | > 1000 nM | > 1000 nM | > 1000 nM | > 1000 nM | > 1000 nM | > 1000 nM | > 1000 nM | > 1000 nM | > 1000 nM | > 1000 nM | > 1000 nM | > 1000 nM | > 1000 nM | > 1000 nM | IC50 (PC3): > 1000 nM; IC50 (PLCPRF5): > 1000 nM; IC50 (SW579): > 1000 nM; IC50 (TOV112D): 100 to 500 nM; IC50 [1]: 100 to 500 nM
CCOCc1ccc(C)c(Nc2ncc(-c3ccc(-n4nc[nH]c4=O)cc3)o2)c1 [Example 043, 2-{4-[2-(5-Ethoxymethyl-(2-methyl-phenylamino))-oxazol-5-yl]-phenyl}-2,4-dihydro-[1,2,4]triazol-3-one] | 500 to 1000 nM | 500 to 1000 nM | > 1000 nM | > 1000 nM | > 1000 nM | > 1000 nM | > 1000 nM | > 1000 nM | > 1000 nM | > 1000 nM | > 1000 nM | > 1000 nM | > 1000 nM | > 1000 nM | > 1000 nM | > 1000 nM | > 1000 nM | > 1000 nM | > 1000 nM | > 1000 nM | IC50 (PC3): > 1000 nM; IC50 (PLCPRF5): > 1000 nM; IC50 (SW579): > 1000 nM; IC50 (TOV112D): 100 to 500 nM; IC50 [1]: 100 to 500 nM
CCOCc1ccc(C)c(Nc2ncc(-c3ccc(N4C(=O)NC[C@H]4C)cc3)o2)c1 [Example 051, (R)-1-(4-(2-((5-(ethoxymethyl)-2-methylphenyl)amino)oxazol-5-yl)phenyl)-5-methylimidazolidin-2-one] | ≤ 100 nM | ≤ 100 nM | > 1000 nM | > 1000 nM | > 1000 nM | > 1000 nM | > 1000 nM | > 1000 nM | > 1000 nM | ≤ 100 nM | > 1000 nM | > 1000 nM | > 1000 nM | > 1000 nM | 100 to 500 nM | > 1000 nM | > 1000 nM | > 1000 nM | > 1000 nM | > 1000 nM | IC50 (PC3): ≤ 100 nM; IC50 (PLCPRF5): > 1000 nM; IC50 (SW579): > 1000 nM; IC50 (TOV112D): ≤ 100 nM; IC50 [1]: 100 to 500 nM
CCOCc1ccc(C)c(Nc2ncc(-c3ccc(-n4c(C)n[nH]c4=O)cc3)o2)c1 [Example 052, 4-(4-(2-((5-(ethoxymethyl)-2-methylphenyl)amino)oxazol-5-yl)phenyl)-5-methyl-2,4-dihydro-3H-1,2,4-triazol-3-one] | > 1000 nM | > 1000 nM | > 1000 nM | > 1000 nM | > 1000 nM | > 1000 nM | > 1000 nM | > 1000 nM | > 1000 nM | > 1000 nM | > 1000 nM | > 1000 nM | > 1000 nM | > 1000 nM | > 1000 nM | > 1000 nM | > 1000 nM | > 1000 nM | > 1000 nM | > 1000 nM | IC50 (PC3): > 1000 nM; IC50 (PLCPRF5): > 1000 nM; IC50 (SW579): > 1000 nM; IC50 (TOV112D): > 1000 nM; IC50 [1]: > 1000 nM
CCOCc1cc(COCC)cc(Nc2ncc(-c3ccc(N4CCNC4=O)cc3)o2)c1 [Example 053, 1-(4-(2-((3,5-bis(ethoxymethyl)phenyl)amino)oxazol-5-yl)phenyl)imidazolidin-2-one] | ≤ 100 nM | ≤ 100 nM | > 1000 nM | > 1000 nM | > 1000 nM | 100 to 500 nM | > 1000 nM | > 1000 nM | > 1000 nM | ≤ 100 nM | > 1000 nM | > 1000 nM | > 1000 nM | ≤ 100 nM | ≤ 100 nM | > 1000 nM | 100 to 500 nM | > 1000 nM | ≤ 100 nM | > 1000 nM | IC50 (PC3): ≤ 100 nM; IC50 (PLCPRF5): > 1000 nM; IC50 (SW579): > 1000 nM; IC50 (TOV112D): > 1000 nM; IC50 [1]: ≤ 100 nM
CCOCc1ccc(C)c(Nc2ncc(-c3ccc(N4CCN(CCOC)C4=O)cc3)o2)c1 [Example 054, 1-(4-(2-((5-(ethoxymethyl)-2-methylphenyl)amino)oxazol-5-yl)phenyl)-3-(2-methoxyethyl)imidazolidin-2-one] | > 1000 nM | > 1000 nM | > 1000 nM | > 1000 nM | > 1000 nM | > 1000 nM | > 1000 nM | > 1000 nM | > 1000 nM | > 1000 nM | > 1000 nM | > 1000 nM | > 1000 nM | > 1000 nM | > 1000 nM | > 1000 nM | > 1000 nM | > 1000 nM | > 1000 nM | > 1000 nM | IC50 (PC3): > 1000 nM; IC50 (PLCPRF5): > 1000 nM; IC50 (SW579): > 1000 nM; IC50 (TOV112D): > 1000 nM; IC50 [1]: > 1000 nM
CCOCc1ccc(C)c(Nc2ncc(-c3ccc(N4CCNC4=O)nc3)o2)c1 [Example 055, 1-(5-(2-((5-(ethoxymethyl)-2-methylphenyl)amino)oxazol-5-yl)pyridin-2-yl)imidazolidin-2-one] | ≤ 100 nM | ≤ 100 nM | > 1000 nM | ≤ 100 nM | > 1000 nM | > 1000 nM | > 1000 nM | > 1000 nM | > 1000 nM | ≤ 100 nM | > 1000 nM | > 1000 nM | > 1000 nM | ≤ 100 nM | ≤ 100 nM | > 1000 nM | 500 to 1000 nM | > 1000 nM | > 1000 nM | > 1000 nM | IC50 (PC3): ≤ 100 nM; IC50 (PLCPRF5): > 1000 nM; IC50 (SW579): ≤ 100 nM; IC50 (TOV112D): ≤ 100 nM; IC50 [1]: ≤ 100 nM
CCOCc1cc(Nc2ncc(-c3ccc(N4CCNC4=O)cc3)o2)cc(OCCOC)c1 [Example 056, 1-(4-(2-((3-(ethoxymethyl)-5-(2-methoxyethoxy)phenyl)amino)oxazol-5-yl)phenyl)imidazolidin-2-one] | ≤ 100 nM | ≤ 100 nM | > 1000 nM | > 1000 nM | 100 to 500 nM | > 1000 nM | > 1000 nM | > 1000 nM | > 1000 nM | ≤ 100 nM | > 1000 nM | > 1000 nM | > 1000 nM | > 1000 nM | ≤ 100 nM | > 1000 nM | > 1000 nM | > 1000 nM | > 1000 nM | > 1000 nM | IC50 (PC3): ≤ 100 nM; IC50 (PLCPRF5): > 1000 nM; IC50 (SW579): ≤ 100 nM; IC50 (TOV112D): ≤ 100 nM; IC50 [1]: ≤ 100 nM

— US10570122B2, “Compounds with anti-tumoral activity” (AB Science, priority 2015, dated 2020)
